Measurements as given in paper PMC8308736, “Functional Characterization of the Oxantel-Sensitive Acetylcholine Receptor from Trichuris muris” (Pharmaceuticals, 2021).
Where two headings read alike, the source gives them in different places.

Key:
Tmu-ACR-16-like = target: T1, Tmu-ACR-16-like (Trichuris muris, UniProt A0A5S6R3I6); experiment: two-electrode voltage-clamp in Xenopus oocytes co-injected with Xla-ric-3; type: cell-based
T1 construct: full-length subunit (464 amino acids; GenBank MZ322663), homomeric receptor in Xenopus laevis oocytes

Tsu-ACR-16-like = target: T2, Tsu-ACR-16-like (Trichuris suis, UniProt A0A890W0I7); experiment: as above; type: cell-based
T2 construct: ACR-16-like subunit (GenBank MT386096), homomeric receptor in Xenopus laevis oocytes
T2 sequence (A0A890W0I7 22-461): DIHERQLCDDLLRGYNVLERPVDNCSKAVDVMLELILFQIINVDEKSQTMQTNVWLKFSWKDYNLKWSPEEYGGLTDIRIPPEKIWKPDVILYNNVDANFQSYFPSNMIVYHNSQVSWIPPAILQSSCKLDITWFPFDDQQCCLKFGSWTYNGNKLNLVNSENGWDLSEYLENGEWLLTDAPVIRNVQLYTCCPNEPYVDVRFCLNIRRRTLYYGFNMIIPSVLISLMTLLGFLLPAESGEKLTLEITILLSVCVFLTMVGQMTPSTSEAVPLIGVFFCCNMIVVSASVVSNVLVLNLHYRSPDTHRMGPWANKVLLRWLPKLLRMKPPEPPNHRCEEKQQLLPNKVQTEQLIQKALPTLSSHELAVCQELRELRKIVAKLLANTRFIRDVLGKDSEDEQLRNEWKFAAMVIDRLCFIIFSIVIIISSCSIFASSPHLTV

T1 sequence (A0A5S6R3I6 entry or part of it): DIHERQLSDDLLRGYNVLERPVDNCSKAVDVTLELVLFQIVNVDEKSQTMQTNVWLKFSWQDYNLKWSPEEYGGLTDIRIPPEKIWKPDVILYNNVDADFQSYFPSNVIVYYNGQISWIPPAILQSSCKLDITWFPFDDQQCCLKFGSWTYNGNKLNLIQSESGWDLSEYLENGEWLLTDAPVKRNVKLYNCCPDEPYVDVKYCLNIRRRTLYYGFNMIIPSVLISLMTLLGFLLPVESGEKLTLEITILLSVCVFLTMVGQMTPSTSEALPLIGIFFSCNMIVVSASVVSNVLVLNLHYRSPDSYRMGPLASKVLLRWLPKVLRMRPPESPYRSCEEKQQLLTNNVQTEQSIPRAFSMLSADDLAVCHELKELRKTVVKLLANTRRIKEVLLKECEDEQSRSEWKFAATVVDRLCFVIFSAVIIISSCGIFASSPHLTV

Compound | EC50 (Tmu-ACR-16-like; read-out: EC50) [µM] | EC50 (Tsu-ACR-16-like) [µM] | EC50 (Tmu-ACR-16-like) [µM]
CC(=O)OCC[N+](C)(C)C [acetylcholine] | 31.1 ± 0.3 |  | 
Clc1ccc(C2CC3CCC2N3)cn1 (stereo not shown) [epibatidine] |  | 1.9 ± 0.5 | 1.7 ± 0.4
CN1CCCN=C1/C=C/c1cccc(O)c1 [oxantel] | 32.7 ± 0.3 |  | 
